This note sets out measurements from PubChem BioAssay AID256 (DTP/NCI, 2004).

Several values for one entry are separate records, joined by “and”; a condition that tells them apart may be missing. Equal values may be shown once. Inconclusive results and toxic doses are left out. Residues, ends and D or L forms follow the SMILES beside them. *: point of attachment. Boc = CC(C)(C)OC(=O)*; NHNH2 = NN*

For this assay, the system named is CD2F1 mice, L1210 leukemia ip, survival T/C. Description: NCI In Vivo Anticancer Drug Screen. Data for tumor model L1210 Leukemia (intraperitoneal) in CD2F1 (CDF1) mice. The conditions noted are these: higher = longer survival. An outline of the steps:
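Mice carrying a transplanted tumor received test compound or vehicle alone. The value is the measurement in the treated group divided by that in the vehicle-treated control group.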

[1] abbreviates: endpoint: mean survival time, dose: 100.0 mg/kg/injection, schedule: Q04DX003 (ip), vehicle: saline sonified.
[2] abbreviates: endpoint: mean survival time, dose: 200.0 mg/kg/injection, schedule: Q04DX003 (ip), vehicle: saline sonified.
Where [3] appears, read: endpoint: mean survival time, dose: 400.0 mg/kg/injection, schedule: Q04DX003 (ip), vehicle: saline sonified.
Where [4] appears, read: endpoint: mean survival time, dose: 100.0 mg/kg/injection, schedule: Q01DX001 (ip), vehicle: saline.
The mark [5] stands for this setting: endpoint: mean survival time, dose: 200.0 mg/kg/injection, schedule: Q01DX001 (ip), vehicle: saline.
The mark [6] stands for this setting: endpoint: mean survival time, dose: 400.0 mg/kg/injection, schedule: Q01DX001 (ip), vehicle: saline.
Setting [7] is: endpoint: mean survival time, dose: 100.0 mg/kg/injection, schedule: Q04DX003 (ip), vehicle: saline.
Where [8] appears, read: endpoint: mean survival time, dose: 200.0 mg/kg/injection, schedule: Q04DX003 (ip), vehicle: saline.
[9] abbreviates: endpoint: mean survival time, dose: 50.0 mg/kg/injection, schedule: Q01DX009 (ip), vehicle: Klucel (hydroxypropylcellulose) (HPC).
The mark [10] stands for this setting: endpoint: mean survival time, dose: 100.0 mg/kg/injection, schedule: Q01DX009 (ip), vehicle: Klucel (hydroxypropylcellulose) (HPC).
Setting [11] is: endpoint: mean survival time, dose: 100.0 mg/kg/injection, schedule: Q04DX003 (ip), vehicle: saline with Tween-80.
[12] abbreviates: endpoint: mean survival time, dose: 200.0 mg/kg/injection, schedule: Q04DX003 (ip), vehicle: saline with Tween-80.
Setting [13] is: endpoint: mean survival time, dose: 400.0 mg/kg/injection, schedule: Q04DX003 (ip), vehicle: saline with Tween-80.

`CCC[S][Pb]([c]1ccccc1)([c]1ccccc1)[c]1ccccc1`: the T/C is, setting by setting: (endpoint: mean survival time, dose: 10.0 mg/kg/injection, schedule: Q01DX001 (ip), vehicle: Klucel (hydroxypropylcellulose) (HPC)) 98 % of control; (endpoint: mean survival time, dose: 20.0 mg/kg/injection, schedule: Q01DX001 (ip), vehicle: Klucel (hydroxypropylcellulose) (HPC)) 101 % of control; (endpoint: mean survival time, dose: 40.0 mg/kg/injection, schedule: Q01DX001 (ip), vehicle: Klucel (hydroxypropylcellulose) (HPC)) 104 % of control.

Take `CCCCCC(C)(C)O`: the T/C is, setting by setting: under setting [1], 94 % of control; under setting [2], 90 % of control; under setting [3], 101 % of control.

In the case of `NC(=S)N/N=C/c1ccc(F)cn1`, the T/C runs as follows: (endpoint: mean survival time, dose: 11.0 mg/kg/injection, schedule: Q04DX003 (ip), vehicle: saline with Tween-80) 105 % of control; (endpoint: mean survival time, dose: 12.5 mg/kg/injection, schedule: Q04DX002 (ip), vehicle: saline with Tween-80) 118 % of control; (endpoint: mean survival time, dose: 16.5 mg/kg/injection, schedule: Q04DX003 (ip), vehicle: saline with Tween-80) 110 % of control; (endpoint: mean survival time, dose: 25.0 mg/kg/injection, schedule: Q04DX003 (ip), vehicle: saline with Tween-80) 110 % of control.

As for `O=c1[nH]cnc2c1ncn2C1OCC(O)C(O)C1O` (centres undefined), the T/C reads like this: under setting [4], 102 % of control; under setting [5], 97 % of control; under setting [6], 103 % of control.

As to `COc1cccc(C(=O)C=C(C(F)(F)F)C(F)(F)F)c1`, the T/C was 104 % of control (endpoint: mean survival time, dose: 12.5 mg/kg/injection, schedule: Q01DX009 (ip), vehicle: saline with Tween-80) and 109 % of control (endpoint: mean survival time, dose: 25.0 mg/kg/injection, schedule: Q01DX009 (ip), vehicle: saline with Tween-80).

On to `O=S(=O)(O)SCC1NCCCN1`, for which the T/C (endpoint: mean survival time, dose: 12.5 mg/kg/injection, schedule: Q04DX002 (ip), vehicle: saline) is 108 % of control; the T/C (endpoint: mean survival time, dose: 25.0 mg/kg/injection, schedule: Q04DX002 (ip), vehicle: saline) was 101 % of control; the T/C (endpoint: mean survival time, dose: 50.0 mg/kg/injection, schedule: Q04DX002 (ip), vehicle: saline) is 101 % of control.

Take `Ic1ncnc2c1ncn2C1CCCO1` (centres undefined): the T/C by setting is: (endpoint: mean survival time, dose: 50.0 mg/kg/injection, schedule: Q04DX003 (ip), vehicle: saline) 96 % of control; under setting [7], 94 % of control; under setting [8], 94 % of control.

For `COc1ccc(CCNC(=O)Cc2cc3c(cc2[N+](=O)[O-])OCO3)cc1OC`, the T/C reads like this: under setting [4], 95 % of control; under setting [5], 94 % of control; under setting [6], 95 % of control.

As to `O=NN(CCSCCCCl)C(=O)NC1CCCCC1`, the T/C (endpoint: mean survival time, dose: 6.25 mg/kg/injection, schedule: Q01DX001 (ip), vehicle: distilled water + Tween-80) was 96 % of control; the T/C (endpoint: mean survival time, dose: 12.5 mg/kg/injection, schedule: Q01DX001 (ip), vehicle: distilled water + Tween-80) is 96 % of control; the T/C (endpoint: mean survival time, dose: 25.0 mg/kg/injection, schedule: Q01DX001 (ip), vehicle: distilled water + Tween-80) was 101 % of control; the T/C (endpoint: mean survival time, dose: 50.0 mg/kg/injection, schedule: Q01DX001 (ip), vehicle: distilled water + Tween-80) was 102 % of control; the T/C (endpoint: mean survival time, dose: 100.0 mg/kg/injection, schedule: Q01DX001 (ip), vehicle: distilled water + Tween-80) was 101 % of control; the T/C (endpoint: mean survival time, dose: 200.0 mg/kg/injection, schedule: Q01DX001 (ip), vehicle: distilled water + Tween-80) was 102 % of control. The T/C (endpoint: mean survival time, dose: 400.0 mg/kg/injection, schedule: Q01DX001 (ip), vehicle: distilled water + Tween-80) is 118 % of control.

Turning to `CCCCCCCCCCCCCCCCCC[n+]1cccc(C(=O)N2CCOCC2)c1`, the T/C is 90 % of control (endpoint: mean survival time, dose: 25.0 mg/kg/injection, schedule: Q01DX009 (ip), vehicle: Klucel (hydroxypropylcellulose) (HPC)); 95 % of control under setting [9]; 92 % of control under setting [10].

Turning to `c1ccc(-c2nnnn2-c2ccccc2)cc1`, the T/C reads like this: under setting [7], 101 % of control; under setting [8], 98 % of control; (endpoint: mean survival time, dose: 400.0 mg/kg/injection, schedule: Q04DX003 (ip), vehicle: saline) 104 % of control.

For the compound `CCC(C)C(NC(=O)OCc1ccccc1)C(=O)ON1C(=O)CCC1=O` (centres undefined), the T/C by setting is: under setting [1], 95 % of control; under setting [2], 90 % of control; under setting [3], 100 % of control.

As for `Nc1nc(SCc2ccc([N+](=O)[O-])cc2)c2[nH]cnc2n1`, the T/C (endpoint: mean survival time, dose: 100.0 mg/kg/injection, schedule: Q01DX009 (ip), vehicle: saline with Tween-80) was 94 % of control; the T/C under setting [11] was 97 % of control; the T/C (endpoint: mean survival time, dose: 200.0 mg/kg/injection, schedule: Q01DX009 (ip), vehicle: saline with Tween-80) is 101 % of control; the T/C under setting [12] was 97 % of control; the T/C (endpoint: mean survival time, dose: 400.0 mg/kg/injection, schedule: Q01DX009 (ip), vehicle: saline with Tween-80) was 95 % of control; the T/C under setting [13] was 96 % of control.

As to `CC(=O)OC1CCC2(C)C(CCC3C2C(=O)C(OC(C)=O)C2(C)C3CC3OC4(CCC(C)CO4)C(C)C32)C1` (centres undefined), the T/C is, setting by setting: under setting [11], 87 % of control; under setting [12], 87 % of control; under setting [13], 89 % of control.

Take `CC(=O)C1CCC2C3CC=C4CC(n5cc(F)c(=O)[nH]c5=O)CCC4(C)C3CCC12C` (centres undefined): the T/C (endpoint: mean survival time, dose: 12.5 mg/kg/injection, schedule: Q04DX003 (ip), vehicle: Klucel (hydroxypropylcellulose) (HPC)) was 97 % of control; the T/C (endpoint: mean survival time, dose: 25.0 mg/kg/injection, schedule: Q04DX003 (ip), vehicle: Klucel (hydroxypropylcellulose) (HPC)) is 101 % of control; the T/C (endpoint: mean survival time, dose: 50.0 mg/kg/injection, schedule: Q04DX003 (ip), vehicle: Klucel (hydroxypropylcellulose) (HPC)) is 97 % of control; the T/C (endpoint: mean survival time, dose: 100.0 mg/kg/injection, schedule: Q04DX003 (ip), vehicle: Klucel (hydroxypropylcellulose) (HPC)) is 98 % of control; the T/C (endpoint: mean survival time, dose: 200.0 mg/kg/injection, schedule: Q04DX003 (ip), vehicle: Klucel (hydroxypropylcellulose) (HPC)) was 91 % of control.

For the compound `Cc1cc(SCc2ccccc2)cc(C)[o+]1`, the T/C runs as follows: (endpoint: mean survival time, dose: 75.0 mg/kg/injection, schedule: Q01DX001 (ip), vehicle: saline) 106 % of control; (endpoint: mean survival time, dose: 150.0 mg/kg/injection, schedule: Q01DX001 (ip), vehicle: saline) 93 % of control.

Take `O=[Se](O)O.[NH-]C1CCCCC1[NH-].[Pt+2]` (centres undefined): the T/C (endpoint: mean survival time, dose: 1.0 mg/kg/injection, schedule: Q04DX003 (ip), vehicle: dextrose) is 124 % of control.

On to `Cc1cc(N/N=C/c2ccccn2)nc2ccccc12`, for which the T/C by setting is: (endpoint: median survival time, dose: 6.25 mg/kg/injection, schedule: Q01DX009 (ip), vehicle: Klucel (hydroxypropylcellulose) (HPC)) 102 % of control; (endpoint: median survival time, dose: 12.5 mg/kg/injection, schedule: Q01DX009 (ip), vehicle: Klucel (hydroxypropylcellulose) (HPC)) 100 % of control; (endpoint: median survival time, dose: 25.0 mg/kg/injection, schedule: Q01DX009 (ip), vehicle: Klucel (hydroxypropylcellulose) (HPC)) 97 % of control; (endpoint: median survival time, dose: 50.0 mg/kg/injection, schedule: Q01DX009 (ip), vehicle: Klucel (hydroxypropylcellulose) (HPC)) 110 % of control.

`CC(=O)C1CCC2(C)C(CCC3C4CCC(C(C)=O)C4(C)CC(=O)C32)C1` (centres undefined): the T/C under setting [9] is 96 % of control; the T/C under setting [10] is 100 % of control; the T/C (endpoint: mean survival time, dose: 200.0 mg/kg/injection, schedule: Q01DX009 (ip), vehicle: Klucel (hydroxypropylcellulose) (HPC)) is 93 % of control.

`NOCc1cc(Cl)sc1Cl`: the T/C under setting [11] is 112 % of control and the T/C under setting [12] is 121 % of control.

As to `O=CC(O)C(O)C(O)C(O)C(=O)O.[NH-]CC1CCCCC1[NH-].[Pt+2]` (centres undefined), the T/C reads like this: (endpoint: mean survival time, dose: 1.88 mg/kg/injection, schedule: Q04DX003 (ip), vehicle: saline) 118 % of control; (endpoint: mean survival time, dose: 7.5 mg/kg/injection, schedule: Q04DX003 (ip), vehicle: saline) 156 % of control; (endpoint: mean survival time, dose: 15.0 mg/kg/injection, schedule: Q04DX003 (ip), vehicle: saline) 166 % of control and 253 % of control; (endpoint: mean survival time, dose: 30.0 mg/kg/injection, schedule: Q04DX003 (ip), vehicle: saline) 151 % of control.

`CC(C)CC(NC(=O)C(Cc1c[nH]c2ccccc12)NC(=O)OC(C)(C)C)C(=O)NN` (stereo not drawn) (Boc-Trp-Leu-NHNH2; configuration not given here): the T/C (endpoint: mean survival time, dose: 25.0 mg/kg/injection, schedule: Q01DX009 (ip), vehicle: saline) is 105 % of control; the T/C (endpoint: mean survival time, dose: 50.0 mg/kg/injection, schedule: Q01DX009 (ip), vehicle: saline) is 106 % of control and 109 % of control; the T/C (endpoint: mean survival time, dose: 100.0 mg/kg/injection, schedule: Q01DX009 (ip), vehicle: saline) is 117 % of control and 124 % of control; the T/C (endpoint: mean survival time, dose: 200.0 mg/kg/injection, schedule: Q01DX009 (ip), vehicle: saline) is 117 % of control.
